PubChem BioAssay (NCI)
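How tested: cells in 96-well plates exposed to compound for 48 hours at five concentrations. GI50 marks 50% less growth. TGI: total growth inhibition.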

Columns and labels:
Assay in all cases: inhibition of tumour cell growth, NCI panel, 48 h
[1] = system: SNB-19 CNS
[2] = system: HOP-62 NSCLC
[3] = system: SNB-75 CNS
[4] = system: NCI-H23 lung
[5] = system: CCRF-CEM leukemia
[6] = system: SN12C renal
[7] = system: A549 NSCLC
[8] = system: UACC-62 melanoma
[9] = system: KM12 colon
[10] = system: HCT-116 colon
[11] = system: UO-31 renal
[12] = system: MCF7 breast
[13] = system: BT-549 breast
[14] = system: M14 melanoma
[15] = system: SK-MEL-5 melanoma
[16] = system: TK-10 renal
[17] = system: PC-3 prostate
[18] = system: DU-145 prostate
[19] = system: CAKI-1 renal
[20] = system: SF-268 CNS
[21] = system: MOLT-4 leukemia
[22] = system: SF-295 CNS
[23] = system: RXF 393 renal
[24] = system: 786-0 renal
[25] = system: SF-539 CNS
[26] = system: OVCAR-5 ovarian
[27] = system: HL-60(TB) leukemia
[28] = system: HT29 colon
[29] = system: SK-MEL-28 melanoma
[30] = system: NCI/ADR-RES ovarian
[31] = system: COLO 205 colon
[32] = system: MDA-MB-435
[33] = system: OVCAR-8 ovarian
[34] = system: NCI-H460 lung
[35] = system: UACC-257 melanoma
[36] = system: SW-620 colon
[37] = system: MALME-3M melanoma
[38] = system: RPMI-8226 leukemia
[39] = system: MDA-MB-231 breast
[40] = system: T-47D breast
[41] = system: ACHN renal
[42] = system: K-562 leukemia
[43] = system: NCI-H226 lung
[44] = system: SK-OV-3 ovarian
[45] = system: HCC-2998 colon
[46] = system: U251 CNS
[47] = system: OVCAR-3 ovarian
[48] = system: A498 renal
[49] = system: HS 578T breast
[50] = system: LOX IMVI melanoma
[51] = system: NCI-H522 lung
[52] = system: SK-MEL-2 melanoma
[53] = system: IGROV1 ovarian
[54] = system: OVCAR-4 ovarian
[55] = system: HOP-92 NSCLC
[56] = system: HCT-15 colon
[57] = system: EKVX NSCLC

In the case of `CC1=CC(C)(C)Nc2ccc(Cc3ccc4c(c3)C(C)=CC(C)(C)N4)cc21`, the GI50 [1] is reported as 17.2 µM, the TGI [1] is reported as > 100 µM and the GI50 [2] is reported as 21.3 µM. For the same compound, the TGI [2] was > 100 µM, the GI50 [3] was 14.8 µM and the TGI [3] was > 100 µM. For the same compound, the GI50 [4] was 4.54 µM, the TGI [4] was > 100 µM and the GI50 [5] was 4.67 µM. The TGI [5] was 59.6 µM, the GI50 [6] was 11.2 µM and the TGI [6] was > 100 µM. The GI50 [7] was 12.2 µM, the TGI [7] was > 100 µM and the GI50 [8] was 6.95 µM. It also gave a TGI [8] of 29 µM, a GI50 [9] of 8.34 µM and a TGI [9] of 72.6 µM. The GI50 [10] was 8.69 µM, the TGI [10] was 43.9 µM and the GI50 [11] was 7.27 µM. It also gave a TGI [11] of 65.8 µM, a GI50 [12] of 5.23 µM and a TGI [12] of 26.3 µM. For the same compound, the GI50 [13] was 28.4 µM, the TGI [13] was > 100 µM and the GI50 [14] was 28.4 µM. For the same compound, the TGI [14] was > 100 µM, the GI50 [15] was 9.05 µM and the TGI [15] was 22 µM. The GI50 [16] was 16.8 µM, the TGI [16] was 92.8 µM and the GI50 [17] was 4.26 µM. The TGI [17] was > 100 µM, the GI50 [18] was 10.1 µM and the TGI [18] was 76.1 µM. For the same compound, the GI50 [19] was 13 µM, the TGI [19] was > 100 µM and the GI50 [20] was 16.6 µM. For the same compound, the TGI [20] was > 100 µM, the GI50 [21] was 4.86 µM and the TGI [21] was 54 µM. For the same compound, the GI50 [22] was 9.78 µM, the TGI [22] was > 100 µM and the GI50 [23] was 22 µM. For the same compound, the TGI [23] was 88.7 µM, the GI50 [24] was 26 µM and the TGI [24] was > 100 µM. For the same compound, the GI50 [25] was 23.6 µM, the TGI [25] was 89.3 µM and the GI50 [26] was 52.3 µM. The TGI [26] was > 100 µM, the GI50 [27] was 5.1 µM and the TGI [27] was 34.1 µM. The GI50 [28] was 12.2 µM, the TGI [28] was > 100 µM and the GI50 [29] was 20.3 µM. The TGI [29] was > 100 µM, the GI50 [30] was 18.1 µM and the TGI [30] was > 100 µM. The GI50 [31] was 20.3 µM, the TGI [31] was 45.2 µM and the GI50 [32] was 16.5 µM. The TGI [32] was > 100 µM, the GI50 [33] was 9.59 µM and the TGI [33] was 56.8 µM. For the same compound, the GI50 [34] was 12 µM, the TGI [34] was 55.1 µM and the GI50 [35] was 7.06 µM. It also gave a TGI [35] of 72.1 µM, a GI50 [36] of 11.5 µM and a TGI [36] of 25.5 µM. It also gave a GI50 [37] of 11.8 µM, a TGI [37] of 42 µM and a GI50 [38] of 2.02 µM. It also gave a TGI [38] of 23.5 µM, a GI50 [39] of 15.7 µM and a TGI [39] of 64.2 µM. The GI50 [40] was 3.77 µM, the TGI [40] was 35.2 µM and the GI50 [41] was 11.1 µM. The TGI [41] was > 100 µM, the GI50 [42] was 3.6 µM and the TGI [42] was 51.8 µM. The GI50 [43] was 20.2 µM, the TGI [43] was > 100 µM and the GI50 [44] was 17.7 µM. For the same compound, the TGI [44] was 97.1 µM, the GI50 [45] was 20.6 µM and the TGI [45] was > 100 µM. For the same compound, the GI50 [46] was 3.96 µM, the TGI [46] was > 100 µM and the GI50 [47] was 6.4 µM. It also gave a TGI [47] of 21.3 µM, a GI50 [48] of 10.9 µM and a TGI [48] of 61.4 µM. The GI50 [49] was 8.14 µM, the TGI [49] was 47.4 µM and the GI50 [50] was 15.1 µM. For the same compound, the TGI [50] was 82.2 µM, the GI50 [51] was 3.56 µM and the TGI [51] was 16.1 µM. For the same compound, the GI50 [52] was 12.5 µM, the TGI [52] was 40.6 µM and the GI50 [53] was 16.1 µM. The TGI [53] was > 100 µM, the GI50 [54] was 7.24 µM and the TGI [54] was > 100 µM. For the same compound, the GI50 [55] was 8.42 µM, the TGI [55] was 65.6 µM and the GI50 [56] was 13.8 µM. For the same compound, the TGI [56] was 72.6 µM, the GI50 [57] was 5.67 µM and the TGI [57] was > 100 µM.
